The source of these data is US20170101669A1, “Nucleic Acid Based Sensor and Methods Thereof” (National Centre for Biological Sciences, priority 2014, published 2017).

Test [1] deals with endosomal compartments of Drosophila hemocytes. As to the kind of experiment: Chloride concentration in endosomal compartments of hemocytes under chemical perturbation, measured with Clensor. The conditions noted are these: +NPPB. The class given is cell-based. On the procedure:
Hemocytes are washed with 1×M1 buffer (150 mM NaCl, […], 1 mM CaCl2, 1 mM MgCl2, 20 mM HEPES pH 7.2) prior to labeling. Hemocytes are incubated with 2 μM of Clensor sample (diluted in 1×M1 buffer) for 5-10 minutes (depending on the signal again, *for measurements in early endosomes 5 min pulse is given*) and then washed 3-4 times with 1×M1 and then chased for an additional 5 to 120 minutes. For a chase longer than 5 minutes, 1×M1 is replaced by complete insect medium and transferred to a 20° C. incubator. For 5 minute chases, cells are washed and then imaged in 1×M1.
For Chloride ion […] measurement experiments, after pulsing with Clensor, cells are chased for (i) 5 min (Early Endosome), (ii) 60 min (Late endosome) and (iii) 120 min (Lysosome). Each set of cells are then imaged live, acquiring two images for each set of cells. (i) Ex=480/20, Dichroic=500-600 BP, Em=535/40 and (ii) Ex=640/30, Dichroic=665 LP, Em=690/50.
Hemocytes are pulsed with 2 μM of Clensor sample for 30 minutes (for development of a signal), washed 3-4 times with 1×M1 followed by a 5 minute chase in same medium. Cells are then fixed with 200 μL 2.5% paraformaldehyde (PFA) for 20 minutes at room temperature, quickly washed 3 times and retained in 1×M1. To obtain intracellular Chloride ion (Cl^−) calibration curve, perfusate and endosomal Chloride ion (Cl^−) concentration are equalized by incubating the previously fixed cells in 120 mM KCl/KNO3, 20 mM NaCl/NaNO3, 1 mM CaCl2/Ca(NO3)2, 1 mM MgCl2/Mg(NO3)2, and 10 mM HEPES at pH 7.2, with Chloride ion (Cl^−) concentration from about 0-80 mM (NO3^− replacing Cl^−) for about 3 hours at room temperature. Chloride clamping solution contains Nigericin (10 μM)+Valinomycin (10 μM)+CCCP (5 μM)+Monensin (10 μM)+Bafilomycin (200 nM). The cells are imaged in the same buffer.
Here, the hemocytes are treated with a non-specific chloride ion channel blocker NPPB (5-nitro-2-(3-phenylpropylamino)-benzoate).

The next test concerns Drosophila hemocytes. Briefly: Bafilomycin perturbation of endosomal chloride concentration and pH in hemocytes. In kind it is cell-based. The method, then: Bafilomycin is used to perturb endosomal Chloride ion concentration [Cl^−] and these perturbations are followed by changes in R/G ratios in Clensor labeled endosomes of Drosophila hemocytes. pH is simultaneously measured in this system by pulsing with about 2 mg/mL 10 kDa FITC-dextran (FD10) for about 5 minutes at room temperature and chased for about 120 minutes at about 20° C. The cells are then incubated with 1×M1 buffer containing about 200 nM Bafilomycin followed by a 120 minute chase at about 20° C. in the same buffer.
Intracellular pH is measured by the Dual Excitation Method. λEx480/λEx 430 emission ratios show about 2.1 fold decrease in pH as a function of time till about 120 minutes post endocytosis, indicating the expected decrease in pH in hemocytes (FIG. 16a, black). Upon Bafilomycin treatment, endosomal pH is reversed as given by gradual increase (˜2.2 fold) in λEx480/λEx 430 emission ratios (FIG. 16a, black). […]
FIG. 16 depicts the integrity of Clensor during endosomal maturation. […] Chloride concentrations and pH values are monitored after Bafilomycin treatment. […] Endosomal pH is monitored by ratios of the intensity at 530 nm when the FITC is excited at 480 nm and 430 nm (λex480/λex 430). […]

As to `O=C(O)c1cc([N+](=O)[O-])ccc1NCCCc1ccccc1` [NPPB, 5-nitro-2-(3-phenylpropylamino)-benzoate], the “Mean [Cl−] ± s.e.m, EE” value in test [1] (early endosomes, 5 min) was found to be 9.3 ± 1.5 mM. In addition, the “Mean [Cl−] ± s.e.m, LE” value in test [1] (late endosomes, 60 min) came out at 33.8 ± 2.5 mM. Besides, the “Mean [Cl−] ± s.e.m, LY” value in test [1] (lysosomes, 120 min) turned out to be 86.5 ± 3.5 mM.

With Bafilomycin, the “increase in λEx480/λEx 430 emission ratios (reversal of endosomal pH)” value in the test with Drosophila hemocytes (200 nM Bafilomycin, FITC-dextran labeled hemocytes, after 120 min chase) is recorded as around 2.2 fold. Moreover, the “change of R/G ratios of Clensor labeled endosomes (endosomal [Cl−])” value with Drosophila hemocytes (after 200 nM Bafilomycin treatment) is “R/G ratios gradually decrease”.
